# Reference: the RepoRT retention time repository (doi:10.1016/j.scitotenv.2015.08.078)
# Experiment: RP, Waters ACQUITY UPLC BEH C18, 100 × 2.1 mm, 1.7 µm, 0.3 mL/min, estimated dead time 0.73 min; A: water + 0.1% formic acid, pH 3; B: methanol + 0.1% formic acid, pH 3; gradient (min/%B) 0/10 14/90 16/90 18/10
# Settings: stereoisomer not certain
row,Compound,LC retention time [min]
1,Nc1nc(N)nc(NC2CC2)n1 [Cyromazine],1.45
2,Nc1ccc(S(=O)(=O)c2ccc(N)cc2)cc1 [Dapsone],3.17
3,CC(C)Nc1nc(N)nc(Cl)n1 [Deetheylatrazine],6.06
4,CC(C)(C)Nc1nc(N)[nH]c(=O)n1 [Deethyl-2-hydroxy-terbuthylazine],3.24
5,CSc1nc(N)nc(NC(C)(C)C)n1 [Deethylterbutryn],9.3
6,CC1(C)C(C=C(Br)Br)C1C(=O)OC(C#N)c1cccc(Oc2ccccc2)c1 (configuration not stated) [Deltamethrin],14
7,CCSCCSP(=O)(OC)OC [Demeton-S-methyl],7.56
8,CC1=CC2OC3C(O)CC(C)(C34CO4)C2(CO)C(O)C1=O (configuration not stated) [Deoxynivalenol],2.83
9,O=C1CN=C(c2ccccc2F)c2cc(Cl)ccc2N1 [Desalkyl-flurazepam],10
10,CCNc1nc(N)nc(Cl)n1 [Desisopropylatrazine],4.38
11,CNc1nc(NC(C)C)nc(SC)n1 [Desmetryn],8.78
12,CC(C)c1cc(Oc2ccccc2)cc(C(C)C)c1NC(=S)NC(C)(C)C [Diafenthiuron],13.7
13,CN1C(=O)CN=C(c2ccccc2)c2cc(Cl)ccc21 [Diazepam],10.9
14,CCOP(=S)(OCC)Oc1cc(C)nc(C(C)C)n1 [Diazinon],12.5
15,CCOP(=S)(OCC)Oc1ccc(Cl)cc1Cl [Dichlofenthion],13.4
16,CN(C)S(=O)(=O)N(SC(F)(Cl)Cl)c1ccccc1 [Dichlofluanid],10.8
17,C=CCN(CC=C)C(=O)C(Cl)Cl [Dichlormid],7.52
18,COP(=O)(OC)OC=C(Cl)Cl [Dichlorvos],7.31
19,Cc1onc(-c2c(Cl)cccc2Cl)c1C(=O)NC1C(=O)N2C1SC(C)(C)C2C(=O)O (configuration not stated) [Dicloxacillin],10.4
20,CC=C(C(=CC)c1ccc(O)cc1)c1ccc(O)cc1 [Dienestrol],11.1
21,CCOc1ccc(NC(=O)OC(C)C)cc1OCC [Diethofencarb],9.88
22,CCOC(=O)c1ccccc1C(=O)OCC [Diethyl phthalate],9.3

row,Compound,LC retention time [min]
1,CCN(CC)C(=O)N1CCN(C)CC1 [Diethylcarbamazine],2.52
2,CCC(=C(CC)c1ccc(O)cc1)c1ccc(O)cc1 [Diethylstilbestrol],10.9
3,O=C(NC(=O)c1c(F)cccc1F)Nc1ccc(Cl)cc1 [Diflubenzuron],11.2
4,O=C(Nc1ccc(F)cc1F)c1cccnc1Oc1cccc(C(F)(F)F)c1 [Diflufenican],12.7
5,CN(C)C(=O)Nc1ccc(-n2nc(C(C)(C)C)oc2=O)c(Cl)c1 [Dimefuron],9.63
6,CC(C)(SC(=O)N1CCCCC1)c1ccccc1 [Dimepiperate],12.3
7,COCCN(C(=O)CCl)c1c(C)cccc1C [Dimethachlor],9.39
8,CCNc1nc(NC(C)C(C)C)nc(SC)n1 (configuration not stated) [Dimethametryn],11.4
9,COCC(C)N(C(=O)CCl)c1c(C)csc1C (configuration not stated) [Dimethenamid],10.1
10,CNC(=O)CSP(=S)(OC)OC [Dimethoate],5.37
11,Cc1ncc([N+](=O)[O-])n1C [Dimetridazole],2.68
12,CC(C)(C)C(O)C(=Cc1ccc(Cl)cc1Cl)n1cncn1 (configuration not stated) [Diniconazole],12.2
13,CN(C)CCOC(c1ccccc1)c1ccccc1 [Diphenhydramine],7.71
14,c1ccc(Nc2ccccc2)cc1 [Diphenylamine],10.5
15,CCCOC(=O)c1ccccc1C(=O)OCCC [Dipropyl phthalate],11.1
16,CCOP(=S)(OCC)SCCS(=O)(=O)CC [Disulfoton-sulfone],8.76
17,CN(C)C(=O)Nc1ccc(Cl)c(Cl)c1 [Diuron],9.72
18,CC1CN(C2CCCCCCCCCCC2)CC(C)O1 (configuration not stated) [Dodemorph],13.4
19,COC1CC(OC2C(C)OC(OC3C(C)=CCC4CC(CC5(C=CC(C)C(C6CCCCC6)O5)O4)OC(=O)C4C=C(C)C(O)C5OCC(=CC=CC3C)C45O)CC2OC)OC(C)C1O (configuration not stated) [Doramectine],15.7
20,CC1c2cccc(O)c2C(O)=C2C(=O)C3(O)C(O)=C(C(N)=O)C(=O)C(N(C)C)C3C(O)C21 (configuration not stated) [Doxycycline],7.42
21,CCOP(=S)(Oc1ccc([N+](=O)[O-])cc1)c1ccccc1 (configuration not stated) [EPN],12.2
22,CCOP(=O)(Sc1ccccc1)Sc1ccccc1 [Edifenphos],11.7

row,Compound,LC retention time [min]
1,CCC(C)C1OC2(C=CC1C)CC1CC(CC=C(C)C(OC3CC(OC)C(OC4CC(OC)C(NC)C(C)O4)C(C)O3)C(C)C=CC=C3COC4C(O)C(C)=CC(C(=O)O1)C34O)O2 (configuration not stated) [Emamectin B1a],13.8
2,CCOC(=O)C(CCc1ccccc1)NC(C)C(=O)N1CCCC1C(=O)O (configuration not stated) [Enalapril],7.86
3,CCN1CCN(c2cc3c(cc2F)c(=O)c(C(=O)O)cn3C2CC2)CC1 [Enrofloxacin],4.58
4,CCC(C)C1OC2(C=CC1C)CC1CC(CC=C(C)C(OC3CC(OC)C(OC4CC(OC)C(NC(C)=O)C(C)O4)C(C)O3)C(C)C=CC=C3COC4C(O)C(C)=CC(C(=O)O1)C34O)O2 (configuration not stated) [Eprinomectin],15.1
5,CCC1OC(=O)C(C)C(OC2CC(C)(OC)C(O)C(C)O2)C(C)C(OC2OC(C)CC(N(C)C)C2O)C(C)(O)CC(C)C(=O)C(C)C(O)C1(C)O (configuration not stated) [Erythromycin],9.41
6,CCN(C(=O)SCc1ccccc1)C(C)C(C)C (configuration not stated) [Esprocarb],12.8
7,CCS(=O)(=O)Cc1ccccc1OC(=O)NC [Ethiofencarb sulfone],4.07
8,CCS(=O)Cc1ccccc1OC(=O)NC (configuration not stated) [Ethiofencarb sulfoxide],4.6
9,CCSCc1ccccc1OC(=O)NC [Ethiofencarb],8.89
10,CCOP(=S)(OCC)SCSP(=S)(OCC)OCC [Ethion],13.4
11,CCCCc1c(C)nc(NCC)[nH]c1=O [Ethirimol],8.99
12,CCOc1ccc(C(C)(C)COCc2cccc(Oc3ccccc3)c2)cc1 [Ethofenprox],15.1
13,CCOC1Oc2ccc(OS(C)(=O)=O)cc2C1(C)C (configuration not stated) [Ethofumesate],9.89
14,CCCSP(=O)(OCC)SCCC [Ethoprophos],11.1
15,CCOc1ccc2c(c1)C(C)=CC(C)(C)N2 [Ethoxyquin],9.64
16,CCOc1ccccc1OS(=O)(=O)NC(=O)Nc1nc(OC)cc(OC)n1 [Ethoxysulfuron],8.41
17,CCOc1cc(C(C)(C)C)ccc1C1COC(c2c(F)cccc2F)=N1 (configuration not stated) [Etoxazole],13.5
18,CCOc1cc(OP(=S)(OC)OC)nc(CC)n1 [Etrimfos],11.6
19,CCOP(=O)(NC(C)C)Oc1ccc(SC)c(C)c1 (configuration not stated) [Fenamiphos],11.3
20,OC(c1ccc(Cl)cc1)(c1cncnc1)c1ccccc1Cl (configuration not stated) [Fenarimol],11.6
21,N#CC(CCc1ccc(Cl)cc1)(Cn1cncn1)c1ccccc1 (configuration not stated) [Fenbuconazole],11.1
22,CC1(C(=O)Nc2ccc(O)c(Cl)c2Cl)CCCCC1 [Fenhexamid],11.5

row,Compound,LC retention time [min]
1,COP(=S)(OC)Oc1ccc([N+](=O)[O-])c(C)c1 [Fenitrothion],10.5
2,CCC(C)c1ccccc1OC(=O)NC (configuration not stated) [Fenobucarb],9.78
3,CCOC(=O)C(C)Oc1ccc(Oc2nc3ccc(Cl)cc3o2)cc1 (configuration not stated) [Fenoxaprop-ethyl],12.7
4,CC(Oc1ccc(Oc2nc3ccc(Cl)cc3o2)cc1)C(=O)O (configuration not stated) [Fenoxaprop],11.6
5,COP(=O)(OC)Oc1ccc(S(C)(=O)=O)c(C)c1 [Fenoxon sulfone],5.35
6,COP(=O)(OC)Oc1ccc(S(C)=O)c(C)c1 (configuration not stated) [Fenoxon sulfoxide],5.14
7,CCOC(=O)NCCOc1ccc(Oc2ccccc2)cc1 [Fenoxycarb],12.4
8,N#Cc1c[nH]cc1-c1cccc(Cl)c1Cl [Fenpiclonil],9.52
9,CC1(C)C(C(=O)OC(C#N)c2cccc(Oc3ccccc3)c2)C1(C)C (configuration not stated) [Fenpropathrin],13.7
10,CC(Cc1ccc(C(C)(C)C)cc1)CN1CCCCC1 (configuration not stated) [Fenpropidin],10
11,CC(Cc1ccc(C(C)(C)C)cc1)CN1CC(C)OC(C)C1 (configuration not stated) [Fenpropimorph],14.1
12,Cc1nn(C)c(Oc2ccccc2)c1C=NOCc1ccc(C(=O)OC(C)(C)C)cc1 [Fenpyroximate],13.7
13,COP(=O)(OC)Oc1ccc(SC)c(C)c1 [Fenthion oxon],9.48
14,COP(=S)(OC)Oc1ccc(S(C)=O)c(C)c1 (configuration not stated) [Fenthion sulfoxide],7.8
15,COP(=S)(OC)Oc1ccc(SC)c(C)c1 [Fenthion],11.7
16,N#Cc1nn(-c2c(Cl)cc(C(F)(F)F)cc2Cl)c(N)c1S(=O)C(F)(F)F (configuration not stated) [Fipronil],11.3
17,CC(C)OC(=O)C(C)N(C(=O)c1ccccc1)c1ccc(F)c(Cl)c1 (configuration not stated) [Flamprop-isopropyl],11.7
18,COC(=O)C(C)N(C(=O)c1ccccc1)c1ccc(F)c(Cl)c1 (configuration not stated) [Flamprop-methyl],10.7
19,COc1cc(OC)nc(NC(=O)NS(=O)(=O)c2ncccc2C(F)(F)F)n1 [Flazasulfuron],7.14
20,CCCCOC(=O)C(C)Oc1ccc(Oc2ccc(C(F)(F)F)cn2)cc1 (configuration not stated) [Fluaziflop-P-butyl],13.1
21,O=C(NC(=O)c1c(F)cccc1F)Nc1ccc(CON=C(c2ccc(Cl)cc2)C2CC2)cc1 [Flucycloxuron],13.4
